Here are results for 37 molecules from patent US7429578B2, “Tricyclic inhibitors of poly(ADP-ribose) polymerases” (Agouron Pharmaceuticals, Inc., priority 1999, dated 2008).

Values joined by “and” are separate entries in the source; they are usually repeats but may differ in a detail not shown here. Identical values can stand only once.

One data set has as its system A549 cells. The data set can be described thus: Cytotoxicity potentiation assay (topotecan). The class given is cell-based. The following applies: test compound at 0.4 μM, ratio of IC50 of topotecan alone to IC50 of topotecan with test compound.
The target of a further data set is purified PARP protein (Homo sapiens, UniProt P09874). In words: PARP enzyme inhibition assay. The class given is biochemical. The following applies: [32P]NAD+ incorporation, 500 μM NAD+, 25° C.; two values in a cell = tested twice; read-out: Inhibition Constant Ki.
Chain of purified PARP protein (P09874 whole entry): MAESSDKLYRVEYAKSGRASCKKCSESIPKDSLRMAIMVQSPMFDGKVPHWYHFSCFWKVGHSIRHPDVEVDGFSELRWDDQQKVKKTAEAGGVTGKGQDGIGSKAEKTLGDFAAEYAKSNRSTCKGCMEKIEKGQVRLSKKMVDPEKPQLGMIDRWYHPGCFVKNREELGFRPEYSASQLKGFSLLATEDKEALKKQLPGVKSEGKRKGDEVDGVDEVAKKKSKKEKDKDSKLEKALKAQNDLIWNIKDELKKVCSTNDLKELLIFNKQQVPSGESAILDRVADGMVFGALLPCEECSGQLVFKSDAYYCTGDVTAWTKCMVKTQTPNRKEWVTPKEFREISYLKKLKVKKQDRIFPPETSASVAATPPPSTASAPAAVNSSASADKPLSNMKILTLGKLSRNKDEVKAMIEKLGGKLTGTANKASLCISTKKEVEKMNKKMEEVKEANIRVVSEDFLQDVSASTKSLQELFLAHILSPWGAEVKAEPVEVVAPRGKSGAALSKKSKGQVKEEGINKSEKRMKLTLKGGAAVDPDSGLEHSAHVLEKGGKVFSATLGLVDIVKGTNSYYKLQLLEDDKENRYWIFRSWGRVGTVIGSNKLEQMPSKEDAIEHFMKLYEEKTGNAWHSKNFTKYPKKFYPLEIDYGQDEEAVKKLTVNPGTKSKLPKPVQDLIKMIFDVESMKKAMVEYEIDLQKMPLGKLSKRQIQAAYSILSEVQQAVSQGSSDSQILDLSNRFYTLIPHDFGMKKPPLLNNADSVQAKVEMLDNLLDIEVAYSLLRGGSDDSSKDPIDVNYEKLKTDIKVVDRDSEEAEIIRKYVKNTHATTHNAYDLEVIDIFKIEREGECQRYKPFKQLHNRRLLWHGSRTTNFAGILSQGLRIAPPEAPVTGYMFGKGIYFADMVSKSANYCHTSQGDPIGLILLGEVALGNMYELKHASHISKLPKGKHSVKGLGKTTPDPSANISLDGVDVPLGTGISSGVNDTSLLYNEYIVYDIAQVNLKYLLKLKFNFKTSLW

Turning to `C[N+](C)([O-])Cc1ccc(-c2[nH]c3cccc4c3c2CCNC4=O)cc1` [XXXX, 2-(4-(N,N-Dimethylamino)methylphenyl)-3,4,5,6-tetrahydro-1H-azepino[5,4,3-cd]indol-6-one, N-oxide], the “Cytotoxicity Potentiation PF50” value in the data set on A549 cells turned out to be 1.7. For the same molecule, the Ki on purified PARP protein stood at 18 nM.

Take `O=C1NCCc2c(-c3ccccc3)[nH]c3cccc1c23` [Compound 12, 2-Phenyl-3,4,5,6-tetrahydro-1H-azepino[5,4,3-cd]indol-6-one]: in the data set with A549 cells, the “Cytotoxicity Potentiation PF50” value came out at 1.8. In addition, the Ki at purified PARP protein was 4.2 nM.

`O=C1NCCc2c(-c3ccccc3CCCO)[nH]c3cccc1c23` [BBB, 2-[2-(3-Hydroxy-propyl)-phenyl]-1,3,4,5-tetrahydro-azepino[5,4,3-cd]indol-6-one] had a melting point of 233.5 to 234.5 °C. Further, the Ki at purified PARP protein was 20 nM.

`O=C(O)c1ccc(-c2[nH]c3cccc4c3c2CCNC4=O)cc1` [WWW, 4-(6-Oxo-3,4,5,6-tetrahydro-1H-azepino[5,4,3-cd]indol-2-yl)-benzoic Acid]: the melting point was 345.5 to 346.5 °C (dec.). In addition, the Ki on purified PARP protein came out at 263 nM.

As to `CC1=NNC(=O)c2cccc3[nH]cc1c23` [QQ, 1,5-Dihydro-3-methyl-[1,2]diazepino[4,5,6-cd]-indol-6-one], the melting point fell in the range of 335 to 336 °C. Also, the Ki at purified PARP protein was 5.5 nM and 4.5 nM.

With `CN(C)Cc1ccc(-c2[nH]c3cccc4c3c2CNC4=O)cc1` [Compound 6], the “Cytotoxicity Potentiation PF50” value in the data set with A549 cells was determined as 2.2.

`COc1ccccc1-c1[nH]c2cccc3c2c1CCNC3=O` [III, 2-(2-Methoxy-phenyl)-1,3,4,5-tetrahydro-azepino[5,4,3-cd]indol-6-one] displayed a melting point of 254 to 255 °C. Also, the Ki at purified PARP protein was determined as 40 nM.

`O=C1NCCc2c(-c3cccc(Cl)c3)[nH]c3cccc1c23` [Compound 40, 2-(3-Chlorophenyl)-1,3,4,5-tetrahydro-azepino[5,4,3-cd]indol-6-one] had a melting point of 147 to 149 °C. Also, the Ki at purified PARP protein came to 5.2 nM.

For `O=C1NCCc2c(-c3ccc(F)cc3)[nH]c3cccc1c23` [Compound 23, 2-(4-Fluorophenyl)-3,4,5,6-tetrahydro-1H-azepino[5,4,3-cd]indol-6-one], in the data set with A549 cells, the “Cytotoxicity Potentiation PF50” value is reported as 2.3.

For the molecule `O=C1NCCc2c(-c3ccc(Cl)c(C(F)(F)F)c3)[nH]c3cccc1c23` [WW, 2-(4-Chloro-3-trifluoromethyl-phenyl)-1,3,4,5-tetrahydro-azepino[5,4,3-cd]indol-6-one], the melting point was in the range of 118.5 to 119 °C. For the same molecule, the Ki on purified PARP protein was 4.4 nM.

On to `O=C1NCCc2c(-c3ccc(CN4CCOCC4)cc3)[nH]c3cccc1c23` [VVVV, 2-(4-Morpholin-4-ylmethylphenyl)-3,4,5,6-tetrahydro-1H-azepino[5,4,3-cd]indol-6-one], for which, in the data set with A549 cells, the “Cytotoxicity Potentiation PF50” value is 2.1. The inhibitory constant (Ki) on purified PARP protein was 13.2 nM.

As to `CCN(CC)CCc1ccc(-c2[nH]c3cccc4c3c2CCNC4=O)cc1` [Compound YY, 2-[4-(2-Diethylamino-ethyl)-phenyl]-3,4,5,6-tetrahydro-azepino[5,4,3-cd]indol-6-one], the melting point was 224 to 224.5 °C (dec.). Moreover, the Ki on purified PARP protein was 15.1 nM.

As to `COC(=O)CCc1ccccc1-c1[nH]c2cccc3c2c1CCNC3=O` [AAA, 3-[2-(6-Oxo-3,4,5,6-tetrahydro-1H-azepino[5,4,3-cd]indol-2-yl)-phenyl]-propionic acid methyl ester], the melting point was in the range of 201 to 201.5 °C. For the same molecule, at purified PARP protein, the Ki is 11.4 nM.

Turning to `O=C1NCCc2c(-c3cccc(CN4CCCCC4)c3)[nH]c3cccc1c23` [SS], the melting point lay within 235 to 237 °C. In addition, the Ki on purified PARP protein was 14 nM.

As to `O=C1NCCc2c(-c3ccc(CN4CCCC4)cc3)[nH]c3cccc1c23` [UUUU, 2-(4-Pyrrolidin-1-ylmethylphenyl)-3,4,5,6-tetrahydro-1H-azepino[5,4,3-cd]indol-6-one], the “Cytotoxicity Potentiation PF50” value in the data set with A549 cells was determined as 2.0.

For `O=C(Nc1ccc(F)cc1)c1[nH]c2cccc3c2c1CCNC3=O` [Compound YYY, 6-Oxo-3,4,5,6-tetrahydro-1H-azepino[5,4,3-cd]indole-2-carboxylic acid (4-fluorophenyl)-amide], the “Cytotoxicity Potentiation PF50” value with A549 cells is recorded as 1.5. Besides, the Ki at purified PARP protein amounted to 6.3 nM.

On to `Nc1cccc(C#Cc2[nH]c3cccc4c3c2CCNC4=O)c1` [UUU, 2-(3-Amino-phenylethynyl)-1,3,4,5-tetrahydro-azepino[5,4,3-cd]indol-6-one], for which the melting point was 261 to 262 °C (dec.). Moreover, at purified PARP protein, the Ki stood at 11.4 nM.

With `CN(C)Cc1ccc(-c2[nH]c3cccc4c3c2CCNC4=O)cc1` [Compound 21, 2-(4-(N,N-Dimethylamino)methylphenyl)-3,4,5,6-tetrahydro-1H-azepino[5,4,3-cd]indol-6-one], the “Cytotoxicity Potentiation PF50” value in the data set with A549 cells is 2.4.

Regarding `O=C1NCCc2c(-c3ccccc3O)[nH]c3cccc1c23` [DDD, 2-(2-Hydroxy-phenyl)-1,3,4,5-tetrahydro-azepino[5,4,3-cd]indol-6-one], the melting point was 305 °C (dec.). The Ki at purified PARP protein turned out to be 23 nM.

For `N#Cc1[nH]c2cccc3c2c1CCNC3=O` [EEE, 6-Oxo-3,4,5,6-tetrahydro-1H-azepino[5,4,3-cd]indole-2-carbonitrile], the melting point was 315 °C (dec.). In addition, the inhibition constant Ki at purified PARP protein was 10.6 nM.

In turn, `Cn1cc2c3c(cccc31)C(=O)NCC2` [Compound 19, 1-N-Methyl-3,4,5,6-tetrahydro-1H-azepino[5,4,3-cd]indol-6-one] registered a melting point of 194 to 195 °C. Further, at purified PARP protein, the inhibitory constant (Ki) was 62 nM.

For `CC(C)NC(=O)c1[nH]c2cccc3c2c1CCNC3=O` [PPPP, 6-Oxo-1,3,4,5-tetrahydro-1H-azepino[5,4,3-cd]indole-2-carboxylic acid isopropylamide], the melting point was 261 to 262 °C (dec.). In addition, the Ki on purified PARP protein was determined as 32 nM.

`CC(=O)Nc1cccc(-c2[nH]c3cccc4c3c2CCNC4=O)c1` [Compound TT, N-[3-(6-Oxo-3,4,5,6-tetrahydro-1H-azepino[5,4,3-cd]indol-2-yl)-phenyl]-acetamide] returned a melting point of 300.5 to 302 °C. In addition, the Ki at purified PARP protein is 12.2 nM and 4.2 nM.

On to `CC(C)(C)c1ccc(-c2[nH]c3cccc4c3c2CCNC4=O)cc1` [Compound 36, 2-(4-tert-Butyl-phenyl)-1,3,4,5-tetrahydro-azepino[5,4,3-cd]indol-6-one], for which the melting point lay within 243 to 244 °C. The inhibition constant (Ki) at purified PARP protein turned out to be 29 nM.

Consider `O=C1NCCc2c(-c3ccsc3)[nH]c3cccc1c23` [CCCC, 2-Thiophen-3-yl-1,3,4,5-tetrahydro-azepino[5,4,3-cd]indol-6-one], for which the melting point fell in the range of 255 to 256 °C. At purified PARP protein, the Ki is 4.8 nM.

In turn, `COC(=O)c1[nH]c2cccc3c2c1CCNC3=O` [Compound 42, 6-Oxo-3,4,5,6-tetrahydro-1H-azepino[5,4,3-cd]indole-2-carboxylic acid methyl ester] came in with a melting point of 266 to 267 °C. Besides, on purified PARP protein, the Ki is 5.1 nM.

Take `O=C1NCCc2c(CCc3ccccc3)[nH]c3cccc1c23` [Compound 37, 2-Phenethyl-1,3,4,5-tetrahydro-azepino[5,4,3-cd]indol-6-one]: the melting point was in the range of 207 to 208 °C. In addition, the Ki at purified PARP protein stood at 24 nM.

Regarding `O=C1NCCc2c(-c3ccccc3Cl)[nH]c3cccc1c23` [Compound 38, 2-(2-Chlorophenyl)-1,3,4,5-tetrahydro-azepino[5,4,3-cd]indol-6-one], the melting point is 275 °C (dec.). In addition, on purified PARP protein, the Ki is 8.4 nM.

Regarding `CCCCCCCCOC(=O)c1[nH]c2cccc3c2c1CCNC3=O` [FFF, 6-Oxo-3,4,5,6-tetrahydro-1H-azepino[5,4,3-cd]indole-2-carboxylic acid octyl ester], the melting point is 170 to 171 °C. Moreover, on purified PARP protein, the Ki came to 125 nM.

On to `CS(=O)(=O)c1ccc(-c2[nH]c3cccc4c3c2CCNC4=O)cc1` [GGGG, 2-(4-Methanesulfonyl-phenyl)-1,3,4,5-tetrahydro-azepino[5,4,3-cd]indol-6-one], for which the melting point is 308 to 309 °C (dec.). The Ki on purified PARP protein came to 6.2 nM.

As for `CNCc1ccc(-c2[nH]c3cc(F)cc4c3c2CCNC4=O)cc1` [IIII, 8-Fluoro-2-(4-methylaminomethyl-phenyl)-1,3,4,5-tetrahydro-azepino[5,4,3-cd]indol-6-one], the “Cytotoxicity Potentiation PF50” value in the data set on A549 cells is recorded as 2.6.

In turn, `O=C1NCCc2c(-c3cccc(CCO)c3)[nH]c3cccc1c23` [ZZ, 2-[3-(2-Hydroxy-ethyl)-phenyl]-1,3,4,5-tetrahydro-azepino[5,4,3-cd]indol-6-one] had a melting point of 187.5 to 188.5 °C. Besides, at purified PARP protein, the inhibitory constant (Ki) amounted to 9.7 nM.

Consider `O=C1NCCc2c(-c3ccc(O)cc3)[nH]c3cccc1c23` [CCC, 2-(4-Hydroxy-phenyl)-1,3,4,5-tetrahydro-azepino[5,4,3-cd]indol-6-one], for which the melting point is 300 °C (dec.). Besides, on purified PARP protein, the Ki turned out to be 7.3 nM.

`C#CCNC(=O)c1[nH]c2cccc3c2c1CCNC3=O` [OOOO, 6-Oxo-1,3,4,5-tetrahydro-1H-azepino[5,4,3-cd]indole-2-carboxylic acid prop-2-ynylamide]: the melting point was 191 to 192 °C. Besides, on purified PARP protein, the inhibition constant (Ki) is 13 nM.

`O=C1NCCc2c(-c3ccc(C(F)(F)F)cc3)[nH]c3cccc1c23` [Compound 31, 2-(4-Trifluoromethyl-phenyl)-1,3,4,5-tetrahydro-azepino[5,4,3-cd]indol-6-one] displayed a melting point of 208 to 209 °C. Moreover, at purified PARP protein, the Ki was found to be 5 nM.

For the molecule `CNC(=O)c1[nH]c2cccc3c2c1CCNC3=O` [OOO, 6-Oxo-3,4,5,6-tetrahydro-1H-azepino[5,4,3-cd]indole-2-carboxylic acid methylamide], the melting point was 321 to 322 °C (dec.). Further, on purified PARP protein, the Ki came out at 14 nM.

For `O=C1NCCc2c(-c3ccncc3)[nH]c3cccc1c23` [JJJ, 2-Pyridin-4-yl-1,3,4,5-tetrahydro-azepino[5,4,3-cd]indol-6-one], the melting point was 250 °C (dec.). The Ki at purified PARP protein was 5.3 nM.

What is called Ki is a dissociation constant, usually derived from enzyme kinetics or from competition with a known ligand. What is called melting point is the temperature, or range, at which the solid turns liquid.
